According to PMC8495455, “Discovery of a transdermally deliverable pentapeptide for activating AdipoR1 to promote hair growth” (EMBO Molecular Medicine, 2021):

What was measured:
[1] = system: human scalp HFs; test: Ex vivo human HF organ culture, hair shaft elongation; format: cell-based; conditions: 6 days, vs vehicle
Procedure: We next investigated whether P5 can reproduce the effects of APN on hair growth promotion ex vivo (Won et al, [2012]) using ex vivo human HF organ culture model. […] The Ki‐67‐positive cell portion of the matrix area in the P5‐treated HFs was higher than that in the vehicle‐treated group (Fig 3E).
The microdissected full‐length scalp HFs in anagen VI were cut at the level of sebaceous duct and then ex vivo cultured for 6 days at 37°C in a 5% CO2 atmosphere in Williams E medium (#12551032, Gibco) supplemented with hydrocortisone (10 ng/ml), insulin (10 µg/ml), L‐glutamine (2 mM), and penicillin‐streptomycin solution (1×). To avoid any potential bias in the length measurement from pseudo‐catagen progression, the total length of pigmented hair shaft of each HF was measured every three days to calculate the net length of elongated hair shaft and photographed in culture day 6 using a stereomicroscope (Olympus).

[2] = system: C57BL/6 (WT) mice; test: Mouse hair cycle modulation, histology and anagen induction score, WT mice; format: in vivo
From the text: First, we topically applied P5 and minoxidil as a positive control (Messenger & Rundegren, [2004]) on wildtype (WT) mouse. […] Overall, the hair cycle score was higher in the P5‐treated mice than vehicle‐treated mice (Fig 4B). […] Collectively, P5 induces anagen hair cycle in vivo.
Paraffin‐embedded mouse cutaneous back tissue was sectioned (4 μm thickness) and stained with hematoxylin and eosin. For IF staining, human ORS cells cultured in FiTC‐P5, sectioned paraffin‐embedded human HFs (7 μm thickness), and sectioned paraffin‐embedded mouse cutaneous dorsal tissue or human skin tissue (5 μm thickness) were incubated at 4°C overnight with the following primary antibodies diluted in the diluent reagent (Invitrogen): phospho‐AMPK (#2535, 1:100; Cell Signaling), Ki‐67 (#M7240, 1:200; Dako), versican (#ab177480, 1:200; Abcam), or AdipoR1 antibody (#ab126611, 1:200; Abcam). After three washes with PBS, the slides were incubated with the secondary Alexa Fluor 488‐labeled anti‐mouse or rabbit IgG antibody (#ab150077, #ab150113, 1:200; Invitrogen), or Alexa Fluor 594‐labeled anti‐rabbit IgG antibody (#a11012, 1:200; Invitrogen) at 25°C for 1 h. Nuclei were counterstained with 4′,6‐diamidino‐2‐phenylindole (DAPI; #D1306, 1:1,000; Invitrogen). Microscopic observations were performed with a Nikon Eclipse Ci‐L microscope (Nikon). IF intensity was observed and recorded with a Nikon Eclipse Ni‐E fluorescence microscope (Nikon).
For the hair cycle modulation experiment, Adipoq ^−/− (stock #008195; JAX) (Ma et al, [2002]), Adipor1 ^−/− (Yamauchi et al, [2007]; Okada‐Iwabu et al, [2013]), or C57BL/6 (KOATECH) female mice was used (Müller‐Röver et al, [2001]). They were housed (up to four animals per cage; 23 ± 2°C, 8:00–20:00, 12 h/12 h light/dark cycle). Mice were fed a standard chow diet and provided food and water ad libitum. Mice were randomly allocated and shaved dorsally at 7.5 weeks of age. Only mice in telogen were included for the further experiments (Müller‐Röver et al, [2001]). From 8 weeks of age, the shaved dorsal area was treated with vehicle control (ethanol and polyethylene glycol, 30% and 70% v/v), P5 (0.1 mM), or minoxidil (3%) every day. The mouse hair growth score (a value from 0 to 100 based on the skin pigmentation and hair shaft density) was monitored and documented at designated days with the experimenters being blind to the conditions, following a previous study (Chai et al, [2019]). A higher score corresponds to a transition from telogen to anagen. On day 35, we obtained dorsal cutaneous tissue for histological analysis: anagen induction scores (calculated using an assigned arbitrary score; telogen = 1, anagen I–VI = 2–7) (Müller‐Röver et al, [2001]).

[3] = system: FGF7 protein; test: Growth factor protein quantitation in DP cell medium, FGF7; format: cell-based, human; conditions: for protein_FGF7: DP cell medium
From the text: (§1) Next, we investigated the downstream effects of P5 on hair growth factor genes and proteins in DP cells. […] We tested whether P5 can also increase the mRNA levels and proteins of hair growth factors in DP cells: IGF‐1, VEGF, HGF, platelet‐derived growth factor alpha (PDGFA), and fibroblast growth factor (FGF) 7, which are known to induce or maintain the anagen phase of the hair cycle (Jindo et al, [1994]; Philpott et al, [1994]; Yano et al, [2001]; Jang, [2005]; Tomita et al, [2006]; Iino et al, [2007]).
(§2) Human DP cells were grown on a 100‐mm cell culture dish to 100% confluency. After washed by PBS three times, the cells were cultured with serum‐free DMEM and treated with P5. After 48 h, the medium was collected and filtered by a […]. The filtrate was then concentrated using a centrifugal concentrator (Vivaspin 6, 10‐kDa molecular weight cutoff, centrifuged 2,600 g at 4°C for 13 min, Sartorius Stedim Biotech). The signals of each protein in the concentrated media were detected and quantified, based on the enzyme‐linked immunosorbent assay (Human Cytokine Antibody Array C2000, RayBiotech).

[4] = system: IGF-1 protein; test: Growth factor protein quantitation in DP cell medium, IGF-1; format: cell-based, human; conditions: for protein_IGF1: DP cell medium
From the text: as §1, §2

[5] = P5 5μM, relative to Control = 1, replicate 1
[6] = P5 5μM, relative to Control = 1, replicate 2
[7] = P5 5μM, relative to Control = 1, replicate 3
[8] = P5 25μM, relative to Control = 1, replicate 1
[9] = P5 25μM, relative to Control = 1, replicate 2
[10] = P5 25μM, relative to Control = 1, replicate 3
[11] = P5-treated DP cells, 48 h medium, n = 3

GLYYF [P5, GST-fused (GST-P5) in pulldown assays]
Hair shaft growth ex vivo [1]: significantly promoted hair shaft growth ex vivo
Histological examination of HFs ([2]; H&E): anagen HFs were noticeable
Anagen induction scores vs vehicle ([2]; One-way ANOVA with Tukey's test): significantly higher
protein_FGF7 [3, 5]: 1.396
protein_FGF7 [3, 6]: 1.679
protein_FGF7 [3, 7]: 1.269
protein_FGF7 [3, 8]: 3.318
protein_FGF7 [3, 9]: 3.35
protein_FGF7 [3, 10]: 1.357
FGF7 protein expression level [3, 11]: elevated
protein_IGF1 [4, 5]: 0.9827
protein_IGF1 [4, 6]: 1.413
protein_IGF1 [4, 7]: 2.07
protein_IGF1 [4, 8]: 1.764
protein_IGF1 [4, 9]: 4.926
protein_IGF1 [4, 10]: 5.716
IGF-1 protein expression level [4, 11]: elevated
